Among the data in patent US20250368647A1, “NITROGEN CONTAINING CONDENSED 2,3-DIHYDROQUINAZOLINONE COMPOUNDS AS NAV1.8 INHIBITORS” (GLAXOSMITHKLINE INTELLECTUAL PROPERTY DEVELOPMENT LIMITED, priority 2022, published 2025) are ring closure, isolated yield values, retold here.

Read-outs that look alike come from different tables or passages of the source.

In turn, `COc1ccc2c(n1)N(C(=O)OC(C)(C)C)CCCc1cc(F)ccc1Nc1ccc(C(F)(F)F)cc1C(=O)N2` returned a ring closure, isolated yield (from COc1ccc(N)c(N(CCCc2cc(F)ccc2Nc2ccc(C(F)(F)F)cc2C(=O)O)C(=O)OC(C)(C)C)n1, amide bond, 13-membered ring, PyOxim/DIEA, DMF, 95.4 mM, 2.0 h) of 80%.
As for “3^4-fluoro-1^6-methoxy-2^7-(trifluoromethyl)-2^1,2^2,2^3,2^4-tetrahydro-4-oxa-2(3,1)-quinazolina-1(3,2)-pyridina-3(1,2)-benzenacyclo octaphane-6-en-2^4-one”, the ring closure, isolated yield (rcm bond, 12-membered ring, Hoveyda-Grubbs M722 (Grubbs C711), 80.0 °C) is 7%.
In turn, `COc1ccc2c(n1)NCCCCc1cc(F)ccc1N1CN2C(=O)c2cc(C(F)(F)F)ccc21` yielded a ring closure, isolated yield (from COc1ccc(N2CN(c3ccc(F)cc3CCCCN)c3ccc(C(F)(F)F)cc3C2=O)c(Br)n1, cn_pd bond, 12-membered ring, Pd2(dba)3/BINAP/NaOtBu, toluene, 71.0 mM, 90.0 °C, 3.0 h) of 40%.
Where the note is “from COC(=O)c1cc(F)c(C(F)(F)F)cc1Nc1ccc(F)cc1CN(CC(C)(C)c1nc(OC)ccc1N)C(=O)OC(C)(C)C, amide bond, 13-membered ring, LiHMDS, THF, 104.0 mM, 16.0 h”, `COc1ccc2c(n1)C(C)(C)CN(C(=O)OC(C)(C)C)Cc1cc(F)ccc1Nc1cc(C(F)(F)F)c(F)cc1C(=O)N2` gave a ring closure, isolated yield of 46%.
For the setting “the molecule shown is the open-chain precursor, other bond, 13-membered ring, CuI/DIEA, DMF, 21.9 mM, 95.0 °C”, `COc1ccc(NC(=O)c2cc(Cl)c(F)cc2Br)c(N(CCCc2cc(F)ccc2N)C(=O)OC(C)(C)C)n1` yielded a ring closure, isolated yield of 29%.
As for `COc1ccc2c(n1)CC=CCCc1cc(F)ccc1N1CN2C(=O)c2cc(C(F)(F)F)ccc21`, where the note is “from C=CCCc1cc(F)ccc1N1CN(c2ccc(OC)nc2CC=C)C(=O)c2cc(C(F)(F)F)ccc21, rcm bond, 12-membered ring, Hoveyda-Grubbs II (20 mol%), DCE, 50.3 mM, 80.0 °C, 18.0 h”, the ring closure, isolated yield is 67%.
With `COc1ccc2c(n1)NCCOCc1cc(F)ccc1N1CN2C(=O)c2cc(F)c(C(F)(F)F)cc21`, the ring closure, isolated yield (from COc1ccc(N2CN(c3ccc(F)cc3COCCN)c3cc(C(F)(F)F)c(F)cc3C2=O)c(Br)n1, cn_pd bond, 12-membered ring, Pd2(dba)3/BINAP/NaOtBu, toluene, 46.4 mM, 100.0 °C, 4.0 h) amounted to 37%.
Consider `COc1ccc2c(n1)C=CCc1cc(F)ccc1N1CN2C(=O)c2cc(C(F)(F)F)ccc21`, for which the ring closure, isolated yield (from C=CCc1cc(F)ccc1N1CN(c2ccc(OC)nc2C=C)C(=O)c2cc(C(F)(F)F)ccc21, rcm bond, 10-membered ring, Hoveyda-Grubbs II (20 mol%), DCE, 1.38 mM, 80.0 °C, 4.0 h) was 72%.
`O=C1c2cc(C(F)(F)F)ccc2N2CN1c1ccncc1CC=CCCc1cc(F)ccc12` came in with a ring closure, isolated yield (from C=CCCc1cc(F)ccc1N1CN(c2ccncc2CC=C)C(=O)c2cc(C(F)(F)F)ccc21, rcm bond, 12-membered ring, Greencat-iPr, DCE, 80.0 °C, 4.0 h) of 40%.
